What was measured:
[1] = test system: elastase release in whole blood over porcine aortic segments; assay: Elastase release in whole blood over pig aorta segments in situ; type: cell-based; settings: ASA pretreatment; intact or denuded segment
Protocol: (§1) To exclude the possibility that the inhibitory activity of endothelial monolayers was merely an artifact of tissue culture, experiments were performed using intact endothelium in situ in segments of porcine aorta. Normal farm pigs (Spotted Polland) weighing 30-35 kg were euthanized with pentobarbital and the thoracoabdominal aorta removed aseptically. The harvested aorta was rinsed in HBSS containing penicillin 50 IU/ml and streptomycin 50 μg/ml. The aorta was then opened longitudinally along its dorsal surface. The endothelial cell surface was left intact, or denuded mechanically by scraping gently ten times with a metal spatula. The opened aorta was then clamped into a multi-well plexiglass template device, such that the intimal surface of the aorta formed the bottom of the well. The wells were washed with HBSS and blood added and processed exactly as above for 24 well plates.
(§2) As with cultured endothelial cells, TNF release was inhibited when whole blood was incubated in the presence of an intact aortic endothelial surface as compared to an adjacent mechanically denuded segment of vessel (FIG. 21; n=6).

[2] = test system: elastase release in whole blood over endothelial cell monolayer; assay: Augmentation of elastase release in whole blood by HUVEC monolayer; type: cell-based, human; settings: whole blood with endotoxin
Protocol: An assay similar to that described in Example 2 was developed for neutrophil elastase in the same plasma samples (measured as the complex between elastase, and α-1-antitrypsin) using a murine monoclonal antibody (HEL 1076) to elastase as capture and biotinylated murine monoclonal antibody (HAT 1099) as detector. The useful range of this assay was 0.05 to 5 nM complex. These antibodies were obtained by immunizing mice with human neutrophil elastase, human α-1-antitrypsin (Athens Research and Technology, Athens, Ga.) and a complex of both using the method detailed in Example 2. Antibodies were screened for their ability to react with native and complexed antigen. Antibodies were purified from ascites using protein G (Pharmacia, Piscataway, N.J.) affinity chromatography and biotinylated using NHS-LC-biotin (Pierce). In addition to the inhibition of TNF release, calmodulin also augmented elastase release similar to that observed with the endothelial cell monolayer (FIG. 1, authentic calmodulin; FIG. 2, purified endothelial cell calmodulin).
In addition, elastase release in whole blood measured as the complex of elastase with α-1 protease inhibitor (α-1 antitrypsin) was augmented by the presence of an endothelial cell monolayer as shown in FIG. 11 (n=8). […]

[3] = test system: inhibitory activity of porcine aortic endothelium on TNF release in whole blood; assay: TNF release in whole blood over pig aorta segments in situ; type: cell-based; settings: ASA pretreatment of vessel wall
Protocol: as §1, §2

[4] = test system: cultured HUVECs; assay: Prostaglandin release from cultured HUVECs (competitive enzyme immunoassay); type: cell-based, human; settings: ASA 10^-4 M for 1 hour
Protocol: Endothelial cells were treated with inhibitors of enzymes responsible for production of prostaglandins and nitric oxide. In each case, endothelial cells were pretreated by addition of the inhibitor to the culture medium for one hour, before the addition of blood and the TNF-provoking agonist (e.g., LPS) to the wells. Acetylsalicylic acid (ASA, aspirin), (Sigma, St. Louis, Mo.), which is an irreversible inhibitor of the cyclooxygenase enzyme, was removed after the incubation by washing the endothelial cells three times with Hanks balanced salt solution (HBSS) before adding the blood. Indomethacin and N^G -nitro-L-arginine methyl ester (L-NAME; Sigma), which are competitive inhibitors of cyclooxygenase, and nitric oxide synthase, respectively, were added to the HBSS wash solution and again directly to the blood as soon as it had been pipetted into the wells, so that the target enzyme would have no opportunity to escape inhibition. With indomethacin (which has been reported to increase TNF release from macrophages by blocking autocrine production of PGE2), controls were run in which indomethacin was added to the blood in the absence of endothelium.
Therefore, endothelial monolayers were treated with ASA (10^-4 M for 1 hour), an irreversible cyclooxygenase inhibitor. ASA attenuated the inhibitory activity, but by less than 40% of the total inhibition. […]

[5] = test system: endothelial inhibition of LPS-induced TNF release in whole blood; assay: Endothelial (HUVEC) inhibition of LPS-induced TNF release in whole blood, endothelium treated with enzyme inhibitors; type: cell-based, human
Protocol: (§3) Blood from healthy volunteers was drawn from the antecubital vein into a heparinized syringe (10 U/ml final; UpJohn, Kalamazoo, Mich.). 24-well culture plates (Costar, Cambridge, Mass.) were coated with 2% (w/v) gelatin (Sigma) and washed three times with Hanks balanced salt solution (HBSS) (Gibco BRL, Gaithersburg, Md.). Only the center eight wells were used to minimize evaporation. Then, 200 μl of blood was pipetted into each well. For comparative experiments involving endothelial cell monolayers, endothelial cells were seeded onto gelatin-coated wells at 3-5×10^5 cells per well 48 hours prior to experimentation. These wells were washed three times with HBSS and heparinized whole blood added as above. In most cases, the same plate would contain wells with and without endothelium for comparison purposes.
(§4) Test reagents suspended in HBSS (8 to 10 μl) were added to the wells immediately after the blood. Plates were incubated at 37° C. in room air/5% CO2 on an orbital shaker at 150 rpm; incubations were four hours unless otherwise noted. The blood then was transferred to microcentrifuge tubes and centrifuged at 500× g for 10 minutes. The resulting platelet-poor plasma was collected and assayed for TNF immediately, as per Example 2 or stored frozen at -70° C. until use.
Endothelial cells were treated with inhibitors of enzymes responsible for production of prostaglandins and nitric oxide. […]

[6] = test system: LPS-induced TNF release in whole blood; assay: LPS-induced TNF release in whole blood (TNF ELISA); type: cell-based, human; settings: for inhibition of LPS-induced TNF release: 10^-6 M, added directly to whole blood
Protocol: Immunoreactive TNF was measured using a sandwich ELISA sensitive to ≈0.1 ng/ml TNF. 96-well Immulon IV microtiter plates (Dynatech, Chantilly, Va.) were coated overnight at 4° C. with a monoclonal anti-TNF antibody, TNF 1286 or TNF 1311 (5 μg/ml in TBS, 50 μl per well).
The next morning the ELISA plates were washed three times with TBS with 0.1% (v/v) Tween 20 (Sigma) and blocked for one hour with 1% BSA in TBS. Plates were then washed three times. Plasma samples were diluted 1:5 in 0.1% BSA in TBS, and 50 μl/well pipetted onto the plates and allowed to incubate at 37° C. for one hour. TNF standards were made up by addition of known amounts of recombinant human TNF-α (Upstate Biologicals Inc., Lake Placid, N.Y.) to pooled heparinized normal plasma diluted 1:5 in TBS/BSA. All samples and standards were assayed in duplicate. Plates were washed three times and biotinylated goat anti-TNF antibody or biotinylated monoclonal TNF 1289 (2 μg/ml in 0.1% BSA in TBS, 50 μl/well) was applied and incubated at 37° C. for one hour. Plates were washed three times and streptavidin-alkaline phosphatase (Gibco BRL, Grand Island, N.Y.) (0.025 μg/ml in 0.1% BSA in TBS, 50 μl/well) was applied and incubated at 37° C. for one hour. Following a final four washes, an amplified substrate (Gibco BRL) was applied according to the manufacturer's directions. Plates were read at 492 nm on a microtiter plate reader (Molecular Devices, Palo Alto, Calif.) and values obtained by comparing unknowns to a standard curve using a four-parameter fit. The useful range of this assay was 1-50 ng/ml.
as §3, §4
In most experiments, LPS (from E. coli strain 055:B5, Difco) was used to stimulate TNF release. Other agonists used were zymosan (Sigma, St. Louis, Mo.), muramyl dipeptide (Sigma), recombinant human interferon-γ (Mallinckrodt, Paris, Ky.), and recombinant human interleukin-1β (Collaborative Research, Bedford, Mass.). In some experiments, prostaglandin E2 (PGE2) and the stable prostacyclin analogue, carbacyclin (both from Cayman Chemical, Ann Arbor, Mich.) were added just before the LPS. These were dissolved as a 2.84×10^-3 M stock solution in DMSO and diluted in HBSS; buffer controls with the same concentrations of DMSO were assayed in parallel.

[7] = test system: TNF release in whole blood; assay: TNF release in whole blood evoked by other agonists; type: cell-based, human; settings: 0.3 to 1 μg/ml
Protocol: as §3, §4
In most experiments, LPS (from E. coli strain 055:B5, Difco) was used to stimulate TNF release. […]

[8] = test system: human peripheral blood mononuclear cells (PBMC); assay: LPS-induced TNF production by isolated peripheral blood mononuclear cells; type: cell-based; settings: PGE2 10^-7 M, n=4, read-out: inhibition of TNF production by isolated PBMCs
Protocol: To establish whether the inhibitory effect of the endothelium was exerted directly on monocytes or required an intermediary blood cell, human peripheral blood mononuclear cells (PBMC) were prepared from freshly drawn heparinized blood by density-gradient separation on Ficoll-Hypaque (Mono-Poly Resolving Medium, Flow Laboratories, McLean, Va.). Furmaniak-Kazmierczak, et al., "Protein S enhances C4b binding protein interaction with neutrophil," Blood 81:405-411 (1993). Isolated PBMC were washed three times with RPMI 1640 (Mediatech) and resuspended at a concentration of 3-5×10^6 cells/ml. 200 μl aliquots were added to 24-well tissue culture plates, incubated, and assayed as described with whole blood.
Mononuclear cells (4.47±0.94×10^6 /ml) isolated from fresh whole blood released TNF dose-dependently in response to LPS in a manner similar to whole blood.

[9] = test system: TNF release in whole blood in response to E. coli; assay: TNF release in whole blood in response to gentamicin-killed E. coli; type: cell-based, human; settings: data not shown
Protocol: Whole gentamicin-killed E. coli were examined as another stimulus that probably evokes TNF release by several different pathways; for example, they serve as a phagocytic stimulus and also activate complement components. A single colony of E. coli serotype B7 086a61 (ATCC#33985) on an LB plate was cultured overnight in LB Medium (Difco, Detroit, Mich.). The next morning the cells were washed three times in Hanks balanced salt solution (HBSS) and then resuspended in HBSS to 5.7×10^9 cells per ml. Before addition to blood, bacteria were killed by treatment with gentamicin sulfate (Elkins-Sinn, Cherry Hill, N.J.), 500 μg/ml for one hour. TNF release assays were performed according to procedures given in Example 2.

Compound: CC(=O)Oc1ccccc1C(=O)O [ASA, Acetylsalicylic acid]
- effect on stimulation of elastase release by aortic segments [1]: did not significantly alter
- effect on endothelial augmentation of elastase release [2]: not changed
- effect on TNF-inhibitory activity of aortic endothelium [3]: partially reduced
- PGE2 release from cultured HUVECs after treatment ([4]; untreated 0.93 nM, 0.2 nM is limit of detection): < 0.2 nM
- prostacyclin release from cultured HUVECs after treatment ([4]; untreated 4.0 nM): 0.26 nM

Compound: COC(=O)[C@@H](N)CCCN=C(N)N[N+](=O)[O-] [L-NAME, N^G -nitro-L-arginine methyl ester]
- effect on endothelial inhibition of TNF release ([5]; L-NAME 10^-4 M): No reduction

Compound: CCCCC[C@H](O)/C=C/[C@@H]1[C@H]2C/C(=C/CCCC(=O)O)C[C@H]2C[C@H]1O [carbacyclin]
- inhibition of LPS-induced TNF release ([6]; no endothelial cells): almost complete suppression

Compound: CC(=O)N[C@H]1C(O)O[C@H](CO)[C@@H](O)[C@@H]1O[C@H](C)C(=O)N[C@@H](C)C(=O)N[C@H](CCC(=O)O)C(N)=O (some centres unmarked) [Muramyl dipeptide, muramyl dipeptide]
- TNF release agonist activity alone [7]: weak agonists

Compound: COc1ccc2c(c1)c(CC(=O)O)c(C)n2C(=O)c1ccc(Cl)cc1 [indomethacin, Indomethacin]
- effect on endothelial augmentation of elastase release [2]: not changed
- effect on LPS-induced TNF release in the absence of endothelium ([6]; indomethacin added to blood, no endothelium): marginally higher TNF release
- effect on inhibitory effect of endothelial cells in suspension on TNF release ([5]; endothelial cells in suspension): did not block

Compound: CCCCC[C@H](O)/C=C/[C@H]1[C@H](O)CC(=O)[C@@H]1C/C=C\CCCC(=O)O [PGE2, prostaglandin E2]
- inhibition of LPS-induced TNF release ([6]; no endothelial cells): almost complete suppression
- inhibition at 0.1 µM ([6]; Homo sapiens, PGE2 10^-7 M, n=12, read-out: inhibition of whole-blood TNF production): 83.6 ± 2.7%
- potency relative to carbacyclin (inhibition of LPS-induced TNF release) ([6]; whole blood, no endothelial cells): at least 10 fold
- inhibition at 0.1 µM [8]: 63.9 ± 9.6%

Compound: Polymyxin B
- effect on TNF response to LPS ([6]; whole blood, data not shown): dose-dependently antagonized
- effect on TNF response to E. coli [9]: unaffected
